Assay results from the NIST ThermoML archive (doi:10.1016/j.jct.2016.07.009).
Numbers after ± are expanded uncertainties.

What was measured:
[1] = Crystal; DTA
[2] = Molar enthalpy of transition or fusion; conditions: Crystal; DSC

In the case of `Nc1ccc([N+](=O)[O-])cc1[N+](=O)[O-]` [2,4-dinitroaniline], the Normal melting temperature [1] is reported as 178.1 ± 1.1 °C and the “Molar enthalpy of transition or fusion” value [2] is reported as 5.93 ± 0.227 kcal/mol.
